Source: patent US10597388B2, “Pyridazinone herbicides” (FMC CORPORATION, priority 2014, dated 2020)

How the values were obtained:
Experiment in all cases: Test C greenhouse herbicide test, pre- and postemergence
Format in all cases: in vivo
[1] = system: velvetleaf (Abutilon theophrasti)
Summary of the method: (§1)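 Each species was treated both before emergence, in a loam–sand soil mix, and after emergence, as 1- to 4-leaf seedlings in peat-based potting medium. Plants stayed in the greenhouse 13 to 15 d, then were scored from 0 (no effect) to 100 (complete control) relative to controls.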

corn (Zea mays) = system: corn (Zea mays)
Summary of the method: as §1

[2] = system: crabgrass, large (large crabgrass, Digitaria sanguinalis)
Summary of the method: as §1

[3] = system: foxtail, giant (giant foxtail, Setaria faberii)
Summary of the method: as §1

soybean (Glycine max) = system: soybean (Glycine max)
Summary of the method: as §1

[4] = system: galium (catchweed bedstraw, Galium aparine)
Summary of the method: as §1

[5] = system: waterhemp (common waterhemp, Amaranthus rudis)
Summary of the method: as §1

[6] = system: nutsedge, yellow (yellow nutsedge, Cyperus esculentus)
Summary of the method: as §1

[7] = system: pigweed (Amaranthus retroflexus)
Summary of the method: as §1

[8] = system: lambsquarters (Chenopodium album)
Summary of the method: as §1

[9] = system: wheat (winter wheat, Triticum aestivum)
Summary of the method: as §1

[10] = system: morningglory (Ipomoea coccinea)
Summary of the method: as §1

[11] = system: barnyardgrass (Echinochloa crus-galli)
Summary of the method: as §1

[12] = system: ryegrass, Italian (Italian ryegrass, Lolium multiflorum)
Summary of the method: as §1

[13] = system: blackgrass (Alopecurus myosuroides)
Summary of the method: as §1

[14] = Postemergence, 31 g ai/ha, 0 to 100 scale (0 no effect, 100 complete control)
[15] = Postemergence, 125 g ai/ha, scale 0 to 100, 0 is no effect, 100 is complete control
[16] = Postemergence, 250 g ai/ha, scale 0 to 100, 0 no effect, 100 complete control, 13 to 15 d
[17] = Preemergence, 62 g ai/ha, scale 0 to 100, 0 is no effect, 100 is complete control
[18] = Preemergence, 125 g ai/ha, scale 0 to 100, 0 is no effect, 100 is complete control
[19] = Preemergence, 250 g ai/ha, scale 0 to 100, 0 no effect, 100 complete control
[20] = postemergence, 62 g ai/ha, scale 0 to 100, 0 no effect, 100 complete control
[21] = Preemergence, 31 g ai/ha, scale 0 to 100, 0 is no effect, 100 is complete control

Compound: Cc1cc(C)c2sc(C)c(-c3c(O)c(C)nn(C)c3=O)c2c1 [Compound 2, 5-hydroxy-2,6-dimethyl-4-(2,5,7-trimethylbenzo[b]thien-3-yl)-3(2H)-pyridazinone]
- Velvetleaf plant response rating [1, 14]: 100
- Plant response rating, Velvetleaf [1, 15]: 100
- Plant response rating, Velvetleaf [1, 16]: 100
- Plant response rating, Velvetleaf [1, 17]: 95
- Plant response rating, Velvetleaf [1, 18]: 100
- Velvetleaf plant response rating [1, 19]: 100
- Velvetleaf plant response rating [1, 20]: 100
- Corn plant response rating (corn (Zea mays); [14]): 0
- Plant response rating, Corn (corn (Zea mays); [15]): 5
- Plant response rating, Corn (corn (Zea mays); [16]): 10
- Plant response rating, Corn (corn (Zea mays); [21]): 0
- Plant response rating, Corn (corn (Zea mays); [17]): 0
- Plant response rating, Corn (corn (Zea mays); [18]): 0
- Corn plant response rating (corn (Zea mays); [19]): 10
- Corn plant response rating (corn (Zea mays); [20]): 5
- Crabgrass, Large plant response rating [2, 14]: 10
- Plant response rating, Crabgrass, Large [2, 15]: 15
- Plant response rating, Crabgrass, Large [2, 16]: 10
- Plant response rating, Crabgrass, Large [2, 21]: 55
- Plant response rating, Crabgrass, Large [2, 17]: 55
- Plant response rating, Crabgrass, Large [2, 18]: 98
- Crabgrass, Large plant response rating [2, 19]: 95
- Crabgrass, Large plant response rating [2, 20]: 15
- Foxtail, Giant plant response rating [3, 14]: 20
- Plant response rating, Foxtail, Giant [3, 15]: 90
- Plant response rating, Foxtail, Giant [3, 16]: 95
- Plant response rating, Foxtail, Giant [3, 21]: 80
- Plant response rating, Foxtail, Giant [3, 17]: 100
- Plant response rating, Foxtail, Giant [3, 18]: 98
- Foxtail, Giant plant response rating [3, 19]: 100
- Foxtail, Giant plant response rating [3, 20]: 65
- Soybean plant response rating (soybean (Glycine max); [14]): 0
- Plant response rating, Soybean (soybean (Glycine max); [15]): 50
- Plant response rating, Soybean (soybean (Glycine max); [16]): 5
- Plant response rating, Soybean (soybean (Glycine max); [17]): 0
- Plant response rating, Soybean (soybean (Glycine max); [18]): 0
- Soybean plant response rating (soybean (Glycine max); [19]): 0
- Soybean plant response rating (soybean (Glycine max); [20]): 0
- Galium plant response rating [4, 14]: 95
- Plant response rating, Galium [4, 15]: 98
- Plant response rating, Galium [4, 16]: 98
- Plant response rating, Galium [4, 21]: 95
- Plant response rating, Galium [4, 17]: 100
- Plant response rating, Galium [4, 18]: 100
- Galium plant response rating [4, 19]: 100
- Galium plant response rating [4, 20]: 95
- Waterhemp plant response rating [5, 14]: 65
- Plant response rating, Waterhemp [5, 15]: 85
- Plant response rating, Waterhemp [5, 16]: 100
- Plant response rating, Waterhemp [5, 17]: 100
- Plant response rating, Waterhemp [5, 18]: 100
- Waterhemp plant response rating [5, 19]: 100
- Waterhemp plant response rating [5, 20]: 65
- Nutsedge, Yellow plant response rating [6, 14]: 80
- Plant response rating, Nutsedge, Yellow [6, 15]: 98
- Plant response rating, Nutsedge, Yellow [6, 16]: 98
- Plant response rating, Nutsedge, Yellow [6, 21]: 30
- Plant response rating, Nutsedge, Yellow [6, 17]: 45
- Plant response rating, Nutsedge, Yellow [6, 18]: 70
- Nutsedge, Yellow plant response rating [6, 19]: 95
- Nutsedge, Yellow plant response rating [6, 20]: 95
- Pigweed plant response rating [7, 14]: 80
- Plant response rating, Pigweed [7, 15]: 90
- Plant response rating, Pigweed [7, 16]: 98
- Plant response rating, Pigweed [7, 21]: 100
- Plant response rating, Pigweed [7, 17]: 100
- Plant response rating, Pigweed [7, 18]: 100
- Pigweed plant response rating [7, 19]: 100
- Pigweed plant response rating [7, 20]: 60
- Lambsquarters plant response rating [8, 14]: 85
- Plant response rating, Lambsquarters [8, 15]: 98
- Plant response rating, Lambsquarters [8, 16]: 100
- Plant response rating, Lambsquarters [8, 21]: 100
- Plant response rating, Lambsquarters [8, 17]: 100
- Plant response rating, Lambsquarters [8, 18]: 100
- Lambsquarters plant response rating [8, 19]: 100
- Lambsquarters plant response rating [8, 20]: 85
- Wheat plant response rating [9, 14]: 0
- Plant response rating, Wheat [9, 15]: 5
- Plant response rating, Wheat [9, 16]: 5
- Plant response rating, Wheat [9, 17]: 0
- Plant response rating, Wheat [9, 18]: 0
- Wheat plant response rating [9, 19]: 10
- Wheat plant response rating [9, 20]: 0
- Morningglory plant response rating [10, 14]: 100
- Plant response rating, Morningglory [10, 15]: 100
- Plant response rating, Morningglory [10, 16]: 100
- Plant response rating, Morningglory [10, 21]: 98
- Plant response rating, Morningglory [10, 17]: 100
- Plant response rating, Morningglory [10, 18]: 98
- Morningglory plant response rating [10, 19]: 100
- Morningglory plant response rating [10, 20]: 100
- Barnyardgrass plant response rating [11, 14]: 10
- Plant response rating, Barnyardgrass [11, 15]: 15
- Plant response rating, Barnyardgrass [11, 16]: 20
- Plant response rating, Barnyardgrass [11, 21]: 35
- Plant response rating, Barnyardgrass [11, 17]: 70
- Plant response rating, Barnyardgrass [11, 18]: 95
- Barnyardgrass plant response rating [11, 19]: 98
- Barnyardgrass plant response rating [11, 20]: 10
- Ryegrass, Italian plant response rating [12, 14]: 60
- Plant response rating, Ryegrass, Italian [12, 15]: 85
- Plant response rating, Ryegrass, Italian [12, 16]: 90
- Plant response rating, Ryegrass, Italian [12, 21]: 95
- Plant response rating, Ryegrass, Italian [12, 17]: 98
- Plant response rating, Ryegrass, Italian [12, 18]: 98
- Ryegrass, Italian plant response rating [12, 19]: 98
- Ryegrass, Italian plant response rating [12, 20]: 75
- Blackgrass plant response rating [13, 14]: 45
- Plant response rating, Blackgrass [13, 15]: 85
- Plant response rating, Blackgrass [13, 16]: 80
- Plant response rating, Blackgrass [13, 21]: 85
- Plant response rating, Blackgrass [13, 17]: 90
- Plant response rating, Blackgrass [13, 18]: 95
- Blackgrass plant response rating [13, 19]: 95
- Blackgrass plant response rating [13, 20]: 65
